US8404728B2 (priority 2009, dated 2013)
Structures can show the parent of a compound that is named as a salt. Where two headings read alike, the source gives them in different places.

What was measured:
[1] = molecular target: BoNTAe (Clostridium botulinum, UniProt P0DPI0); assay: biochemical; details: for inhibition at 1 µM: read-out: % inhibition of BoNTAe; for inhibition at 20 µM: inhibitor concentration 20 μM
[2] = molecular target: botulinum neurotoxin serotype A (Clostridium botulinum, UniProt P0DPI0); parameters: species or system Balb/c mice; details: mouse, in vivo, ip
[3] = in vivo; details: Balb/c, mouse, ip, 2 mg/kg
[4] = mouse, in vivo, ip, 2 mg/kg; for AUClast / Cmax / Vd: Balb/c

BoNTAe, sequence (P0DPI0 2-448 limits assumed): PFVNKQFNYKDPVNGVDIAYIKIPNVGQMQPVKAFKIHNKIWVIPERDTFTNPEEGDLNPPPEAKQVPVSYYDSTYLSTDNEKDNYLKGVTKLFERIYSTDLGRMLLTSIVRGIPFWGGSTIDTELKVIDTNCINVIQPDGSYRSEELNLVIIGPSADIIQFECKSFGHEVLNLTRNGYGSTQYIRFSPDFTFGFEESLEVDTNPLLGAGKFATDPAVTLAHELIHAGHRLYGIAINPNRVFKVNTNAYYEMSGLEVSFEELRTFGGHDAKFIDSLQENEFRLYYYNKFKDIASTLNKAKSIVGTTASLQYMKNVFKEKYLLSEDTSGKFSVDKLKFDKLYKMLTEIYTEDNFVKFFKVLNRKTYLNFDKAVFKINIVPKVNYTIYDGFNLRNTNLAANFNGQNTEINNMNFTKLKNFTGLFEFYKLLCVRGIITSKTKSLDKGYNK
botulinum neurotoxin serotype A, sequence (P0DPI0 whole entry, looked up): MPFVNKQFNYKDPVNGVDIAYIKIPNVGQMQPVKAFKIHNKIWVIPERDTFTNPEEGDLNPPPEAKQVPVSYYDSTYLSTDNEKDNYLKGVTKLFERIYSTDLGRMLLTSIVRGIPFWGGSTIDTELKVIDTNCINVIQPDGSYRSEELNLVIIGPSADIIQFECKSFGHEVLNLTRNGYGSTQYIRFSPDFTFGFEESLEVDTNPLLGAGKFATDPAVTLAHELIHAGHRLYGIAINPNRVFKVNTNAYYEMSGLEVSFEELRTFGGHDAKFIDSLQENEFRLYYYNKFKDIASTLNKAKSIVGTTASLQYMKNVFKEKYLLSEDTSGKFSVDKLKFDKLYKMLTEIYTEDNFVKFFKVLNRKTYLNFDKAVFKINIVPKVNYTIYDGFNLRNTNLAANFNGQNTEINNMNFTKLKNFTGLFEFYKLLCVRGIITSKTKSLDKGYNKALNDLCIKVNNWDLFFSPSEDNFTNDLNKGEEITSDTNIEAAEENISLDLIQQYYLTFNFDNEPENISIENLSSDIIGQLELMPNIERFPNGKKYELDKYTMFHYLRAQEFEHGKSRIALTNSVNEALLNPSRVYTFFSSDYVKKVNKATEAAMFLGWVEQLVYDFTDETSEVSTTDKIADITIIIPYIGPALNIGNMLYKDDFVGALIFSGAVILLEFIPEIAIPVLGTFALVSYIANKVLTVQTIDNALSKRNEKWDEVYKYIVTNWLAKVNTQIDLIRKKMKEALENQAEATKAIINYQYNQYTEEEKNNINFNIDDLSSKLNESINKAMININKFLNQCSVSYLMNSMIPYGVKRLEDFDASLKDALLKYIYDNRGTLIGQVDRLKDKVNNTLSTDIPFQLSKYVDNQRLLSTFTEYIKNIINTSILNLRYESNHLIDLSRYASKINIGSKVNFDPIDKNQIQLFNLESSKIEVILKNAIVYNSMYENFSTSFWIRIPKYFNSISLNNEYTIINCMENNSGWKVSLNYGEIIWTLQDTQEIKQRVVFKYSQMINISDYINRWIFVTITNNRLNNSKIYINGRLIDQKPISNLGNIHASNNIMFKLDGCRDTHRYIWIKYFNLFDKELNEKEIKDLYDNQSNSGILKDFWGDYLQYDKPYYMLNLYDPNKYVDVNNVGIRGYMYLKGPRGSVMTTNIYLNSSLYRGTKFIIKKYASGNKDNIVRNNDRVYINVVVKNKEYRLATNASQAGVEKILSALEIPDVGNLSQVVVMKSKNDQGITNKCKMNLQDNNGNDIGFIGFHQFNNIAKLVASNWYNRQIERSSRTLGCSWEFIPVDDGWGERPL

Structure (SMILES)	inhibition at 1 µM ([1]; inhibitor concentration 1 μM)	inhibition at 1 µM [1]	Ki [1]	other results
O=C(CCc1cc(C(=O)Nc2cc(CCCCCCN3C(=O)c4ccccc4C3=O)c(OCCCCCCCN3C(=O)c4ccccc4C3=O)c(CCCCCCN3C(=O)c4ccccc4C3=O)c2)n(Cc2ccccc2)c1C#CC(O)(c1ccccc1)c1ccccc1)NO [Inhibitor E6b, 1-Benzyl-N-(3,5-bis(6-(1,3-dioxoisoindolin-2-yl)hexyl)-4-(7-(1,3-dioxoisoindolin-2-yl)heptyloxy)phenyl)-5-(3-hydroxy-3,3-diphenylprop-1-ynyl)-4-(3-(hydroxyamino)-3-oxopropyl)-1H-pyrrole-2-carboxamide trifluoroacetic acid salt]	59 ± 2%	–	–	–
NCCCCCN(CCCCCN)C(=O)c1ccc(-c2cc3ccc(C(=NO)c4cc(CC(=O)NO)c(-c5cccc(O)c5)s4)cc3n2CCCCN)cc1 [Inhibitor E1g]	–	48%	–	–
NCCCCCCN(CCCCCCN)C(=O)c1ccc(-c2cc3ccc(C(=NO)c4cc(CC(=O)NO)c(-c5cccc(O)c5)s4)cc3n2CCCCN)cc1 [Inhibitor E1f, 4-(1-(4-aminobutyl)-6-((4-(2-(hydroxyamino)-2-oxoethyl)-5-(3-hydroxyphenyl)thiophen-2-yl)(hydroxyimino)methyl)-1H-indol-2-yl)-N,N-bis(6-aminohexyl)benzamide]	47 ± 1%	–	–	–
NCCCCCCCN(CCCCCCCN)C(=O)c1cc(CCC(=O)NO)c(CCC(O)(c2ccccc2)c2ccccc2)n1Cc1ccccc1 [Inhibitor E4]	52 ± 1%	–	760 nM	–
NCCCCCCCN(CCCCCCCN)C(=O)c1cc(CCC(=O)NO)c(CCC(CO)(c2ccccc2)c2ccccc2)n1Cc1ccccc1 [Inhibitor E4b, N,N-Bis(7-aminoheptyl)-1-benzyl-5-(4-hydroxy-3,3-diphenylbutyl)-4-(3-(hydroxyamino)-3-oxopropyl)-1H-pyrrole-2-carboxamide]	79 ± 1%	–	210 nM	–
NCCCCn1c(-c2ccccc2)c(F)c2ccc(C(=O)c3cc(CC(=O)NO)c(-c4ccc(O)cc4)s3)cc21 [Inhibitor E2, 2-(5-(1-(4-Aminobutyl)-3-fluoro-2-phenyl-1H-indole-6-carbonyl)-2-(4-hydroxyphenyl)thiophen-3-yl)-N-hydroxyacetamide]	–	–	–	proportion of survivors [2]: significantly (p<0.05) increased the proportion of survivors; Tmax [3]: 30 min; AUClast [4]: 1386.4 ng·h/mL; Cmax [4]: 738.4 ng/mL; Vd [4]: 14.95 L/kg; T1/2 [4]: 6.5; inhibition at 20 µM [1]: 82 ± 6%
NCCCCCCCCCOc1c(CCCCCCN)cc(NC(=O)c2cc(CCC(=O)NO)c(CCC(N)(c3ccccc3)c3ccccc3)n2Cc2ccccc2)cc1CCCCCCN [Inhibitor E6c]	–	55 ± 2%	–	–
NCCCCCCCCCCCCN(CCCCCCCCCCCCN)C(=O)c1ccc(-c2cc3ccc(C(=O)c4cc(CC(=O)NO)c(-c5cccc(O)c5)s4)cc3n2CCCCN)cc1 [Inhibitor E1e]	–	49%	360 nM	–
NCCCCCCCCCCCN(CCCCCCCCCCCN)C(=O)c1ccc(-c2cc3ccc(C(=O)c4cc(CC(=O)NO)c(-c5cccc(O)c5)s4)cc3n2CCCCN)cc1 [Inhibitor E1d]	–	68 ± 1%	340 nM	–
NCCCCCCCCN(CCCCCCCCN)C(=O)c1ccc(-c2cc3ccc(C(=NO)c4cc(CC(=O)NO)c(-c5cccc(O)c5)s4)cc3n2CCCCN)cc1 [Inhibitor E1h]	–	60 ± 1%	–	–
O=C(CCc1cc(C(=O)Nc2cc(CCCCCCN3C(=O)c4ccccc4C3=O)c(OCCCCCCN3C(=O)c4ccccc4C3=O)c(CCCCCCN3C(=O)c4ccccc4C3=O)c2)n(Cc2ccccc2)c1C#CC(O)(c1ccccc1)c1ccccc1)NO [Inhibitor E6, 1-Benzyl-N-(3,5-bis(6-(1,3-dioxoisoindolin-2-yl)hexyl)-4-(6-(1,3-dioxoisoindolin-2-yl)hexyloxy)phenyl)-5-(3-hydroxy-3,3-diphenylprop-1-ynyl)-4-(3-(hydroxyamino)-3-oxopropyl)-1H-pyrrole-2-carboxamide trifluoroacetic acid salt]	50 ± 2%	–	–	–
NCCCCn1c(-c2ccccc2)c(F)c2ccc(C(=O)c3cc(CC(=O)NO)c(-c4cccc(N)c4)s3)cc21 [Inhibitor E3, 2-(5-(1-(4-aminobutyl)-3-fluoro-2-phenyl-1H-indole-6-carbonyl)-2-(3-aminophenyl)thiophen-3-yl)-N-hydroxyacetamide]	–	–	–	proportion of survivors [2]: significantly (p<0.05) increased the proportion of survivors; Tmax [3]: 60 min; AUClast [4]: 1385.93 ng·h/mL; Cmax [4]: 255.99 ng/mL; Vd [4]: 12.84 L/kg; T1/2 [4]: 6.25; inhibition at 20 µM [1]: 47 ± 1%
NCCCCCCCCCCN(CCCCCCCCCCN)C(=O)c1ccc(-c2cc3ccc(C(=O)c4cc(CC(=O)NO)c(-c5cccc(O)c5)s4)cc3n2CCCCN)cc1 [Inhibitor E1c, 4-(1-(4-aminobutyl)-6-(4-(2-(hydroxyamino)-2-oxoethyl)-5-(3-hydroxyphenyl)thiophene-2-carbonyl)-1H-indol-2-yl)-N,N-bis(10-aminodecyl)benzamide]	75 ± 1%	–	260 nM	–
